The test system of experiment [1] is Blastomyces dermatitidis. The experiment can be described thus: Expected efficacy of antifungal agents. The note with it: expected efficacy against Blastomyces dermatitidis.
Experiment [2] relates to Histoplasma capsulatum. Conditions: expected efficacy against Histoplasma capsulatum.
Experiment [3] concerns Aspergillus fumigatus. Nature of the experiment: Expected efficacy of antifungal agents. The note with it: expected efficacy against Aspergillus fumigatus.
In experiment [4] the test system is Aspergillus niger. The experiment can be described thus: Expected efficacy of antifungal agents. The note with it: expected efficacy against Aspergillus niger.
Experiment [5] concerns Aspergillus terreus. Nature of the experiment: Expected efficacy of antifungal agents. Conditions: expected efficacy against Aspergillus terreus.
Experiment [6] concerns Aspergillus flavus. Nature of the experiment: Expected efficacy of antifungal agents. The note with it: expected efficacy against Aspergillus flavus.
Experiment [7] concerns Paracoccidioides brasiliensis. The experiment can be described thus: Expected efficacy of antifungal agents. The note with it: expected efficacy against Paracoccidioides brasiliensis.
Experiment [8] relates to Coccidioides immitis. The note with it: expected efficacy against Coccidioides immitis.
In experiment [9] the test system is Leishmania infantum. The experiment can be described thus: Expected efficacy of antifungal agents. Conditions: expected efficacy against Leishmania infantum.
For experiment [10], the system named is Cryptococcus neoformans. Nature of the experiment: Expected efficacy of antifungal agents. Conditions: expected efficacy against Cryptococcus neoformans.
Experiment [11] concerns Leishmania donovani. Nature of the experiment: Expected efficacy of antifungal agents. Conditions: expected efficacy against Leishmania donovani.
In experiment [12] the test system is Candida species. Nature of the experiment: Expected efficacy of antifungal agents. Conditions: expected efficacy against Candida species.
Experiment [13] has as its system Scedosporium apiospermum. Nature of the experiment: Expected efficacy of antifungal agents. The note with it: expected efficacy against Scedosporium apiospermum.
Experiment [14] concerns Fusarium species. The experiment can be described thus: Expected efficacy of antifungal agents. Conditions: expected efficacy against Fusarium species.
Experiment [15] relates to Neisseria gonorrhoeae. The experiment can be described thus: Expected efficacy of antibiotic agents. The note with it: expected efficacy against Neisseria gonorrhoeae; Gram: neg.
Experiment [16] has as its system Pseudomonas fluorescens. The experiment can be described thus: Expected efficacy of antibiotic agents. Conditions: expected efficacy against Pseudomonas fluorescens; Gram: neg.
Experiment [17] relates to Klebsiella oxytoca. The experiment can be described thus: Expected efficacy of antibiotic agents. The note with it: expected efficacy against Klebsiella oxytoca; Gram: neg.
Experiment [18] deals with Mycoplasma pneumoniae. The experiment can be described thus: Expected efficacy of antibiotic agents. Conditions: expected efficacy against Mycoplasma pneumoniae; Gram: n/a.
The subject of experiment [19] is Bordetella pertussis. The experiment can be described thus: Expected efficacy of antibiotic agents. The note with it: expected efficacy against Bordetella pertussis; Gram: neg.
Experiment [20] relates to Enterobacter sakazakii. Nature of the experiment: Expected efficacy of antibiotic agents. The note with it: expected efficacy against Enterobacter sakazakii; Gram: neg.
Experiment [21] deals with Bacteroides fragilis. The experiment can be described thus: Expected efficacy of antibiotic agents. Conditions: expected efficacy against Bacteroides fragilis; Gram: anaer.
The subject of experiment [22] is Streptococcus pyogenes. Nature of the experiment: Expected efficacy of antibiotic agents. Conditions: expected efficacy against Streptococcus pyogenes; Gram: pos.
The subject of experiment [23] is Klebsiella pneumoniae. The experiment can be described thus: Expected efficacy of antibiotic agents. Conditions: expected efficacy against Klebsiella pneumoniae; Gram: neg.
Experiment [24] concerns Escherichia coli. Nature of the experiment: Expected efficacy of antibiotic agents. Conditions: expected efficacy against Escherichia coli; Gram: neg.
Experiment [25] deals with Staphylococcus aureus (MSSA). The experiment can be described thus: Expected efficacy of antibiotic agents. Conditions: expected efficacy against Staphylococcus aureus (MSSA); Gram: pos.
The test system of experiment [26] is Clostridium difficile. The experiment can be described thus: Expected efficacy of antibiotic agents. The note with it: expected efficacy against Clostridium difficile; Gram: anaer.
The test system of experiment [27] is Peptostreptococcus. Nature of the experiment: Expected efficacy of antibiotic agents. The note with it: expected efficacy against Peptostreptococcus; Gram: pos.
Experiment [28] concerns Pseudomonas aeruginosa. The experiment can be described thus: Expected efficacy of antibiotic agents. Conditions: expected efficacy against Pseudomonas aeruginosa; Gram: neg.
For experiment [29], the system named is Brucella species. Conditions: expected efficacy against Brucella species; Gram: neg.
Experiment [30] has as its system Staphylococcus epidermidis. The experiment can be described thus: Expected efficacy of antibiotic agents. The note with it: expected efficacy against Staphylococcus epidermidis; Gram: pos.
For experiment [31], the system named is Klebsiella (Calymmatobacterium). The experiment can be described thus: Expected efficacy of antibiotic agents. Conditions: expected efficacy against Klebsiella (Calymmatobacterium); Gram: neg.
The test system of experiment [32] is Proteus vulgaris. The experiment can be described thus: Expected efficacy of antibiotic agents. The note with it: expected efficacy against Proteus vulgaris; Gram: neg.
The subject of experiment [33] is Enterobacter aerogenes. The experiment can be described thus: Expected efficacy of antibiotic agents. The note with it: expected efficacy against Enterobacter aerogenes; Gram: neg.
Experiment [34] has as its system Streptococcus pneumoniae. The experiment can be described thus: Expected efficacy of antibiotic agents. Conditions: expected efficacy against Streptococcus pneumoniae; Gram: pos.
In experiment [35] the test system is Serratia marcescens. Nature of the experiment: Expected efficacy of antibiotic agents. Conditions: expected efficacy against Serratia marcescens; Gram: neg.
For experiment [36], the system named is Vibrio cholerae. The experiment can be described thus: Expected efficacy of antibiotic agents. Conditions: expected efficacy against Vibrio cholerae; Gram: neg.
Experiment [37] concerns Chlamydia pneumoniae. The experiment can be described thus: Expected efficacy of antibiotic agents. Conditions: expected efficacy against Chlamydia pneumoniae; Gram: n/a.
In experiment [38] the test system is Legionella pneumophila. Conditions: expected efficacy against Legionella pneumophila; Gram: neg.
The subject of experiment [39] is Chlamydia trachomatis. Nature of the experiment: Expected efficacy of antibiotic agents. The note with it: expected efficacy against Chlamydia trachomatis; Gram: n/a.
In experiment [40] the test system is Streptococcus agalactiae. Nature of the experiment: Expected efficacy of antibiotic agents. Conditions: expected efficacy against Streptococcus agalactiae; Gram: pos.
In experiment [41] the test system is Corynebacterium jeikeium. Nature of the experiment: Expected efficacy of antibiotic agents. The note with it: expected efficacy against Corynebacterium jeikeium; Gram: pos.
Experiment [42] deals with Providencia stuartii. Nature of the experiment: Expected efficacy of antibiotic agents. The note with it: expected efficacy against Providencia stuartii; Gram: neg.
In experiment [43] the test system is Methicillin resistant staph aureus (MRSA). The experiment can be described thus: Expected efficacy of antibiotic agents. The note with it: expected efficacy against Methicillin resistant staph aureus (MRSA); Gram: pos.
The subject of experiment [44] is Enterococcus faecium. Nature of the experiment: Expected efficacy of antibiotic agents. Conditions: expected efficacy against Enterococcus faecium; Gram: pos.
The test system of experiment [45] is Haemophilus parainfluenzae. Nature of the experiment: Expected efficacy of antibiotic agents. Conditions: expected efficacy against Haemophilus parainfluenzae; Gram: neg.
The test system of experiment [46] is Chlamydia psittaci. The note with it: expected efficacy against Chlamydia psittaci; Gram: n/a.
Experiment [47] relates to Corynebacterium urealyticum. The experiment can be described thus: Expected efficacy of antibiotic agents. Conditions: expected efficacy against Corynebacterium urealyticum; Gram: pos.
For experiment [48], the system named is Diphtheroids. Nature of the experiment: Expected efficacy of antibiotic agents. The note with it: expected efficacy against Diphtheroids; Gram: pos.
Experiment [49] has as its system Neisseria meningitidis. Nature of the experiment: Expected efficacy of antibiotic agents. The note with it: expected efficacy against Neisseria meningitidis; Gram: neg.
Experiment [50] deals with Proteus mirabilis. The experiment can be described thus: Expected efficacy of antibiotic agents. Conditions: expected efficacy against Proteus mirabilis; Gram: neg.
Experiment [51] has as its system Providencia rettgeri. Nature of the experiment: Expected efficacy of antibiotic agents. The note with it: expected efficacy against Providencia rettgeri; Gram: neg.
Experiment [52] concerns Moraxella catarrhalis. Nature of the experiment: Expected efficacy of antibiotic agents. The note with it: expected efficacy against Moraxella catarrhalis; Gram: neg.
Experiment [53] deals with Enterobacter cloacae. The experiment can be described thus: Expected efficacy of antibiotic agents. Conditions: expected efficacy against Enterobacter cloacae; Gram: neg.
The subject of experiment [54] is Viridans group streptococci. The experiment can be described thus: Expected efficacy of antibiotic agents. Conditions: expected efficacy against Viridans group streptococci; Gram: pos.
The test system of experiment [55] is Enterococcus faecalis. The experiment can be described thus: Expected efficacy of antibiotic agents. Conditions: expected efficacy against Enterococcus faecalis; Gram: pos.

Among the data in patent US20220265694A1, “COMPOSITIONS AND METHODS FOR TREATING AN INFECTION” (CMPD LICENSING, LLC, priority 2016, published 2022) are Efficacy values, retold here.

`C[C@@H]1[C@H](O)[C@@H](C)/C=C/C=C/C=C/C=C/C=C/C=C/C=C/[C@H](O[C@@H]2O[C@H](C)[C@@H](O)[C@H](N)[C@@H]2O)C[C@@H]2O[C@](O)(C[C@@H](O)C[C@@H](O)[C@H](O)CC[C@@H](O)C[C@@H](O)CC(=O)O[C@H]1C)C[C@H](O)[C@H]2C(=O)O` [Amphotericin]: the Efficacy result in experiment [1], in experiment [2], in experiment [3], in [4], in experiment [5] and in experiment [6] was “yes” in each case. Besides, the Efficacy result in [7], in experiment [8], in [9], in [10], in experiment [11] and in experiment [12] was “yes” each time.
Consider `OC(Cn1cncn1)(Cn1cncn1)c1ccc(F)cc1F` [Fluconazole], for which the Efficacy result in [1], in experiment [2], in experiment [3], in experiment [6], in experiment [8] and in experiment [10] was “yes” each time. Besides, in [12], the Efficacy entry is “yes”.
On to `C[C@@H](c1ncncc1F)[C@](O)(Cn1cncn1)c1ccc(F)cc1F` [Voriconazole], for which the Efficacy result in experiment [3], in experiment [13], in [4], in [5], in experiment [6] and in experiment [14] was “yes” throughout. Further, the Efficacy entry in [12] is on record as “yes”.
Turning to Colistimethate, the Efficacy result was “no” in experiment [15]; “yes” in experiment [16]; “yes” in experiment [17]; “no” in experiment [18]; “no” in experiment [19]; “yes” in experiment [20]. For the same compound, the Efficacy entry is given as “no” in [21]; “no” in experiment [22]; “yes” in [23]; “yes” in experiment [24]; “no” in experiment [25]; “no” in experiment [26]. The Efficacy entry was “no” in experiment [27]; “yes” in experiment [28]; “no” in [29]; “no” in experiment [30]; “yes” in experiment [31]; “no” in experiment [32]. Also, the Efficacy entry in experiment [33] is listed as “yes”; in experiment [34], “no”; in [35], “no”; in [36], “no”; in experiment [37], “no”; in experiment [38] it was “no”. Besides, the Efficacy result in experiment [39], in [40], in experiment [41], in experiment [42], in experiment [43] and in [44] was “no” in each case. In addition, the Efficacy entry in [45], in experiment [46], in experiment [47], in experiment [48], in experiment [49] and in experiment [50] was “no” each time. For the same compound, the Efficacy entry in [51] is “no”; in experiment [52], “no”; in experiment [53] it was “yes”; in experiment [54], “no”; in experiment [55], “no”.
